From patent publication US12171229B2, “Heteroaryl-triazole and heteroaryl-tetrazole compounds as pesticides” (BAYER AKTIENGESELLSCHAFT, priority 2018, dated 2024)

Legend:
Format in all cases: in vivo
Spodoptera frugiperda = Spodoptera frugiperda spray test; settings: 168 h, after 7 days, larvae on maize leaf sections
Summary of the method: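 Read-out: % larval mortality at day 7, where 100% means all killed and 0% none killed. Compound diluted in water with 1000 ppm emulsifier, sprayed onto Zea mays leaf sections; dried sections then infested with S. frugiperda larvae.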

Ctenocephalides felis [1] = test: Ctenocephalides felis oral test; settings: 48 h, 100 ppm in cattle blood, after 2 days, adult unfed cat fleas
Summary of the method: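 Compound dissolved in DMSO and diluted in cattle blood to test concentration, offered to ~20 unfed adult fleas via a parafilm-sealed blood chamber held at 37° C (fleas at room temperature). Kill recorded at 2 days as % mortality.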

[2] = system: Musca domestica strain WHO-N; test: Musca domestica test (MUSCDO surface treatment & contact assay); settings: 24 hours after contact, read-out: efficacy (mortality)
Description: Musca domestica test (MUSCDO surface treatment & contact assay)
(§1) Solvent: Aceton+2000 ppm rapeseed oil methyl ester (RME)
(§2) In order to produce a sufficient, active ingredient containing solution it is necessary to solve the test compound in the solvent-mix (acetone at 2 mg/ml/RME 2000 ppm). This solution is pipetted onto a glazed tile and after evaporation of the acetone, adult flies of the species Musca domestica strain WHO-N are placed onto the dried surface. The exposure time is 30 minutes.
Mortality in percent (%) is determined 24 hours after contact of the insects to the treated surface. 100% morality means that all tested insects are dead, whereas 0% means that no insect died.

[3] = system: Culex quinquefasciatus strain P00; test: Culex quinquefasciatus test (CULXFA surface treatment & contact assay); settings: 24 hours after contact, read-out: efficacy (mortality)
Summary of the method: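 Compound dissolved in acetone (2 mg/ml) with 2000 ppm rapeseed oil methyl ester, applied to glazed tile and dried; adult C. quinquefasciatus strain P00 exposed to surface for 30 minutes. Mortality (%) scored 24 hours after contact.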

Ctenocephalides felis [4] = test: Ctenocephalides felis in-vitro contact test, adult cat flea; settings: 5 μg/cm^2 (=500 g/ha), after 48 hours, adult cat fleas, read-out: efficacy (fleas dead or moribund)
Summary of the method: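 Compound in acetone coated onto inner walls of glass tubes, e.g. 900 ppm giving 5 μg/cm². After drying, 5–10 adult C. felis added per tube and held at room temperature. At 48 h, fleas unable to escape a 45–50 °C heating plate within 5 min scored dead/moribund, giving % efficacy.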

[5] = system: Blattella germanica strain PAULINIA; test: whole plant or invertebrate; settings: read-out: efficacy (mortality)
Description: Blattella Germanica Test (BLTTGE Surface Treatment & Contact Assay)
as §1
as §2, with “animals” for “flies”, “Blattella germanica” for “Musca domestica”, “PAULINIA” for “WHO-N”
Mortality in percent (%) is determined 24 hours after contact of the insects to the treated surface. 100% mortality means that all tested insects are dead, whereas 0% means that no insect died.

Boophilus microplus = Boophilus microplus injection test; settings: Rhipicephalus microplus, 168 h; 20 μg/animal injected into the abdomen; adult engorged female ticks; egg deposition after 7 days; read-out: efficacy (infertile eggs)
Summary of the method: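 Efficacy, from 0% (all eggs fertile) to 100% (all infertile), was scored on eggs laid by five engorged adult females. Each female was injected intra-abdominally with 1 μl of compound solution in DMSO. Fertile egg laying was checked at 7 days, with uncertain eggs kept until hatching at about 42 days.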

Nezara viridula = Nezara viridula spray test; settings: 96 h, 500 g/ha, after 4 days, larvae on barley plants
Summary of the method: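 Mortality (%) was assessed at day 4, from 0% (no bugs dead) to 100% (all dead). The spray solution was compound diluted to test concentration in water with 1000 ppm emulsifier and applied to barley carrying southern green stink bug larvae.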

[6] = system: Aedes aegypti strain MONHEIM; test: Aedes aegypti test (AEDSAE surface treatment & contact assay); settings: 24 hours after contact, read-out: efficacy (mortality)
Summary of the method: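 Compound dissolved in acetone (2 mg/ml) with 2000 ppm rapeseed oil methyl ester, applied to glazed tile and dried; adult strain MONHEIM mosquitoes exposed 30 minutes. Percent mortality scored 24 hours after contact.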

Diabrotica balteata = Diabrotica balteata spray test; settings: Diabrotica balteata, in Triticum aestivum, 168 h, after 7 days, larvae on wheat seeds, read-out: efficacy (seedlings grown up)
Summary of the method: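 Scoring at 7 days compares seedling growth with untreated, uninfested controls (100% = equal growth, 0% = none grown). Wheat seedlings germinated 1 day on agar, 5 per well, received a spray of test solution made in 1000 ppm emulsifier water. Each unit then received 10–20 beetle larvae.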

[7] = surface concentration 4 mg/m^2, exposure 30 minutes
[8] = surface concentration 20 mg/m^2, exposure 30 minutes

C[C@H](NC(=O)c1cc(Cl)cc(C(F)(F)F)c1)c1ncnn1-c1ncc(OC(F)(F)F)cn1 [Example I-011]
mortality at 100 g/ha (Spodoptera frugiperda; 100 g/ha): 100% | mortality at 500 g/ha (Spodoptera frugiperda; 500 g/ha): 100% | mortality at 100 ppm (Ctenocephalides felis [1]): 100% | mortality at 4 mg/m2 [2, 7]: 90 to 100% | mortality at 20 mg/m2 [2, 8]: 90 to 100% | mortality at 4 mg/m2 [3, 7]: 90 to 100% | mortality at 20 mg/m2 [3, 8]: 90 to 100% | pest or weed control at 5 µg/cm2 (Ctenocephalides felis [4]): 100% | mortality at 20 mg/m2 [5]: 80 to 100% | pest or weed control at 0.02 mg (Boophilus microplus): 100% | mortality at 500 g/ha (Nezara viridula): 100% | mortality at 4 mg/m2 [6, 7]: 90 to 100% | mortality at 20 mg/m2 [6, 8]: 90 to 100% | pest or weed control at 80 µg/disc, 250 g/ha (Diabrotica balteata; 80 μg/well (=250 g/ha)): 100% | pest or weed control at 160 µg/disc, 500 g/ha (Diabrotica balteata; 160 μg/well (=500 g/ha)): 100%
